Laboratory results reported in ChEMBL document CHEMBL5321237 (Eur J Med Chem, 2023).
Values after ≈ are worked out from the molar mass of the structure shown. One block for each compound: values may come before it. Active and inactive are the calls of the source. The calls are words filed in the database; no cut-off is given here.

Legend:
[1] = target: T1, Macrophage colony-stimulating factor 1 receptor (Homo sapiens, UniProt P07333); test: Inhibition of CSF1R (unknown origin) using FRET-peptide as substrate incubated in presence of ATP by FRET based Z-LYTE assay
[2] = target: T2, Macrophage colony-stimulating factor 1 receptor (Mus musculus, UniProt P09581); test: Inhibition of CSF1-induced CSF1R signalling in mouse BMDM cells assessed as reduction in ERK1/2 phosphorylation preincubated for 30 mins followed by CSF1 addition and measured after 10 mins; type: cell-based
T2 sequence (P09581 whole entry): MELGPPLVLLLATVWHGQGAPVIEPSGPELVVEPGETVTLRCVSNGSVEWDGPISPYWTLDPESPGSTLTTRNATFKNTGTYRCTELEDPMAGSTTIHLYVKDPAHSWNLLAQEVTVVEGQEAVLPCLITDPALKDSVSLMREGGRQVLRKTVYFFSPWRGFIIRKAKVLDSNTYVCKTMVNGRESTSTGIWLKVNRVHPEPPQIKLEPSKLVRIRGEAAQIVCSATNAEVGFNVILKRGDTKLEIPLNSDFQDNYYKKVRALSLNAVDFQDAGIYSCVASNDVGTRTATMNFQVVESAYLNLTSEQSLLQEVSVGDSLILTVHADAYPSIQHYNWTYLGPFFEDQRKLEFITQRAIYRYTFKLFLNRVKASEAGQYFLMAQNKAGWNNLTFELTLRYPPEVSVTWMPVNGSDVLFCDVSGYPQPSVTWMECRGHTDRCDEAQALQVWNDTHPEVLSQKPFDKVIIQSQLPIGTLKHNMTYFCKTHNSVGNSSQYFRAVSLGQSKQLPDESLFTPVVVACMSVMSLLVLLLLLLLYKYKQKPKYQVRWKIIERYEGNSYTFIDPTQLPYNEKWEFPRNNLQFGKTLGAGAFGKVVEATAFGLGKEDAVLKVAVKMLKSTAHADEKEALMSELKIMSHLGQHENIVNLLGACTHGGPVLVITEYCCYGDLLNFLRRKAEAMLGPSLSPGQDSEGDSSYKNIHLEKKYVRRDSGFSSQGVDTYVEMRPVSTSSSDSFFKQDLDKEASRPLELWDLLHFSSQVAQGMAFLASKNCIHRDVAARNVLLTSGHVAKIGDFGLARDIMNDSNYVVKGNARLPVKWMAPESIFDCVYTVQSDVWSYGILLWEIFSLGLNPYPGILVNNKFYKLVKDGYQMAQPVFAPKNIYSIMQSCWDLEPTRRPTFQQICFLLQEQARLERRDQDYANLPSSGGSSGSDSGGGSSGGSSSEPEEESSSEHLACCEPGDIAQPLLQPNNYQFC

[3] = Kinetic aqueous solubility of compound at pH 7.4 at 500 uM incubated for 90 mins by spectrophotometry analysis; type: physicochemical; conditions: buffer, read-out: Kinetic_solubility
[4] = Metabolic stability in human liver microsomes assessed as intrinsic clearance at 3 uM measured upto 50 mins by LC-MS analysis; type: ADME, Microsome
[5] = target: T3, Macrophage colony-stimulating factor 1 receptor (Mus musculus) (UniProt P09581); test: Inhibition of CSF1-induced CSF1R signalling in mouse BMDM cells assessed as reduction in ERK1/2 phosphorylation by measuring fold change preincubated for 30 mins followed by CSF1 addition and measured after 10 mins relative to pexidartinib; type: cell-based; conditions: time 40.0 min
T3 sequence (whole entry): T2 sequence (P09581 whole entry)

[6] = target: Epidermal growth factor receptor (Homo sapiens, UniProt P00533); test: Inhibition of EGFR (unknown origin) in presence of ATP
[7] = Metabolic stability in mouse liver microsomes assessed as intrinsic clearance at 3 uM measured upto 50 mins by LC-MS analysis; type: ADME, Microsome
[8] = target: T1, Macrophage colony-stimulating factor 1 receptor; test: Binding affinity to non-autoinhibited form of CSF1R (unknown origin) assessed as dissociation constant incubated for 1 hr by qPCR based Hill equation analysis
[9] = Plasma protein binding in mouse assessed as bound fraction at 5 uM incubated for 6 hrs by equilibrium dialysis based LC-MS analysis; type: ADME, cell-free; conditions: read-out: PPB (converted)
[10] = Metabolic stability in cryopreserved pooled ICR/CD-1 mouse hepatocytes assessed as intrinsic clearance measured per 10^6 cells at 3 uM measured for 60 mins by LC-MS/MS analysis; type: ADME, cell-based, Hepatocyte; conditions: read-out: CLH
[11] = target: T1, Macrophage colony-stimulating factor 1 receptor; test: Binding affinity to autoinhibited form of CSF1R (unknown origin) assessed as dissociation constant incubated for 1 hr by qPCR based Hill equation analysis
[12] = Microsomal stability mouse liver microsomes assessed as compound remaining at 5 uM incubated for 1 hr by LC-MS analysis; type: ADME, Microsome; conditions: read-out: Stability
[13] = Observed volume of distribution at steady state in C57BLKS mouse at 1 mg/kg, iv administered as cassette dose measured for 480 mins by LC-MS analysis; type: ADME, organism-based; conditions: in vivo, read-out: Vdss
[14] = Clearance in C57BLKS mouse at 1 mg/kg, iv administered as cassette dose measured for 480 mins by LC-MS analysis; type: ADME, organism-based; conditions: in vivo; for clearance: C57BLKS
[15] = Stability in mouse plasma assessed as compound remaining at 5 uM incubated for 1 hr by LC-MS analysis; type: ADME, cell-free; conditions: read-out: Stability
[16] = Half life in C57BLKS mouse at 1 mg/kg, iv administered as cassette dose measured for 480 mins by LC-MS analysis; type: ADME, organism-based; conditions: in vivo
BaF3 = test: Antiproliferative activity against BaF3 cells expressing human CSF1R assessed as suppression of cell proliferation incubated for 72 hrs by Cell Titer Glo assay; type: functional, cell-based; conditions: Mus musculus, BaF3, 72 h
[17] = Inhibition of […] induced osteoclast differentiation in human Osteoclast precursor cells assessed as suppression of osteoclast formation at 100 to 1000 nM incubated for over 7 days with media replacement for every 3 days by TRITC-phalloidin/Hoechst staining based microscopic analysis relative to control; type: functional, Osteoclast precursor cell; conditions: dose 100-1000 nM, time > 7 day
[18] = test system: Osteoclast precursor cell; conditions: Homo sapiens, dose 10.0 nM, time > 7.0 day
[19] = test system: Osteoclast precursor cell; conditions: Homo sapiens, dose 100-1000 nM, time > 7.0 day
[20] = target: T1, Macrophage colony-stimulating factor 1 receptor; test: Selectivity index, ratio of Kd for non-autoinhibited form of CSF1R (unknown origin) to Kd for autoinhibited form of CSF1R (unknown origin)

T1 sequence (P07333 whole entry): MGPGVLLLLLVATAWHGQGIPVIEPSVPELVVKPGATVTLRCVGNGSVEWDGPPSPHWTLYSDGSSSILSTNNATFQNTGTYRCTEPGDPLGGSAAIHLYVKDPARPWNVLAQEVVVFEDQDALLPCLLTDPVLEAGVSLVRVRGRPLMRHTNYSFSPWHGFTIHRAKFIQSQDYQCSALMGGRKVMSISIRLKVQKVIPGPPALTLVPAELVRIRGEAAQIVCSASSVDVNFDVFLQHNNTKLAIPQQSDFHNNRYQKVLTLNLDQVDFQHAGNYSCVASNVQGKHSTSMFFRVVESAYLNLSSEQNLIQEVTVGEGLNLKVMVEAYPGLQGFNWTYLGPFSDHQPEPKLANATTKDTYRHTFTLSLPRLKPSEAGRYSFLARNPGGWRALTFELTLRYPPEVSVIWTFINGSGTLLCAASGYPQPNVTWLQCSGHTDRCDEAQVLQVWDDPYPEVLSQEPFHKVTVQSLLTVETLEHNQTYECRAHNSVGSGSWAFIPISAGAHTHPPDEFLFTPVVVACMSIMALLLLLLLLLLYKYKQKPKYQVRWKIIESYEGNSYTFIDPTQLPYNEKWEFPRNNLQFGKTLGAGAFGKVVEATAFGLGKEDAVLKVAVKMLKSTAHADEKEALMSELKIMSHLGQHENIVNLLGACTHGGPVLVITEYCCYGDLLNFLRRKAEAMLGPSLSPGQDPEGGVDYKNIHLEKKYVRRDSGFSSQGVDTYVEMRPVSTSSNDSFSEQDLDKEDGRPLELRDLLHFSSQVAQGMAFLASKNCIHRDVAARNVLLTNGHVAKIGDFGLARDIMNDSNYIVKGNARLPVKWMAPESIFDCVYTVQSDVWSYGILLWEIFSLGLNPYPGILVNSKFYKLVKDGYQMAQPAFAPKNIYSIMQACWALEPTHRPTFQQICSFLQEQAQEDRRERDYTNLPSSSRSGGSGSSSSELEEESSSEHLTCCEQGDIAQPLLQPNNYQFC
Sequence of Epidermal growth factor receptor (P00533 whole entry): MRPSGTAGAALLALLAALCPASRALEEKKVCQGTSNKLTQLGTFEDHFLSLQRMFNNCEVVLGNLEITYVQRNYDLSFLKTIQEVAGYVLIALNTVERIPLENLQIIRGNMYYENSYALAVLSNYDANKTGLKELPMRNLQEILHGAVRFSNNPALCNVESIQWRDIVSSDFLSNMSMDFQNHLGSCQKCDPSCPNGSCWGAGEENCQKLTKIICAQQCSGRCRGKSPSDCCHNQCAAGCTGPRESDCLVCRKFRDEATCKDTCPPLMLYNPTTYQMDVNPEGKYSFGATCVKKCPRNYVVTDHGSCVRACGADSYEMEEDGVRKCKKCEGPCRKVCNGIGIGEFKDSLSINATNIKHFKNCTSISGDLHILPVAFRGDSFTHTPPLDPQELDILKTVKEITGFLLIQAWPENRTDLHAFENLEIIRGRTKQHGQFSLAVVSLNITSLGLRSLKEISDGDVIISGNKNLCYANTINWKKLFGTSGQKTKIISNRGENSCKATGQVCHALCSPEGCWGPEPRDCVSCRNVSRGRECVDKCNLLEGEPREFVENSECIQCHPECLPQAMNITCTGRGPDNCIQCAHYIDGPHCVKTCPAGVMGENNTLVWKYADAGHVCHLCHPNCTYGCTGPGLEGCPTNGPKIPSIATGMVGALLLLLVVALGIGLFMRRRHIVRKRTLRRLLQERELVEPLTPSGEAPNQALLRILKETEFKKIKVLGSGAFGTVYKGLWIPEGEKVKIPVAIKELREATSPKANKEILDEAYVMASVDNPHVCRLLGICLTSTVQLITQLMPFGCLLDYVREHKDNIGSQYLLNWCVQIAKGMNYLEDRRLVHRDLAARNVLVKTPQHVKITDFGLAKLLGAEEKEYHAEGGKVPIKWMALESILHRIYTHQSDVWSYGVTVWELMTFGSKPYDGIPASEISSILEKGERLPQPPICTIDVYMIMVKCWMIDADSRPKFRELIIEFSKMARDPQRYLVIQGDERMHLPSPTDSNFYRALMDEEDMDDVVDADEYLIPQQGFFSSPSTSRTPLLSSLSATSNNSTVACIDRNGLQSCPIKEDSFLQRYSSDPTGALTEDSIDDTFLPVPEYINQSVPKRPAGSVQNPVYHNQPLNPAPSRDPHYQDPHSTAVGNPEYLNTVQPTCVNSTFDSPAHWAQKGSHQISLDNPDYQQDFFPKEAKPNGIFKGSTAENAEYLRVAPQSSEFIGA

SMILES: CN(CC1CCCO1)c1ncnc2[nH]c(-c3ccc(CO)cc3)nc12 (stereo unspecified)
- IC50 [2]: > 300 nM
- solubility kinetic at […], 500 µM [3]: 39.7 µM (≈ 13.5 µg/mL)
- CLint [4]: 33.2 µL/min/mg

SMILES: CN1CCCC(CN(C)c2ncnc3[nH]c(-c4ccc(CO)cc4)nc23)C1 (stereo unspecified)
- IC50 [2]: > 300 nM
- solubility kinetic at […], 500 µM [3]: 469 µM (≈ 172 µg/mL)
- CLint [4]: 3.6 µL/min/mg

SMILES: CN(Cc1ccccc1)c1ncnc2[nH]c(-c3ccc(CO)cc3)nc12
- IC50 [2]: 330 nM
- fold change (FC) [5]: 2.9
- IC50 [6]: 109 nM
- CLint [4]: 14.4 µL/min/mg
- CLint [7]: 57.8 µL/min/mg

SMILES: CN(CC1CCCCC1)c1ncnc2[nH]c(-c3ccc(CO)cc3)nc12
- IC50 [2]: 100 nM
- fold change (FC) [5]: 0.9
- solubility kinetic at […], 500 µM [3]: 0.5 µM (≈ 0.176 µg/mL)
- IC50 [1]: 1 nM
- CLint [4]: 22.3 µL/min/mg

SMILES: CN(CC1CCCCO1)c1ncnc2[nH]c(-c3ccc(CO)cc3)nc12 (stereo unspecified)
- IC50 [2]: > 300 nM
- solubility kinetic at […], 500 µM [3]: 9.2 µM (≈ 3.25 µg/mL)
- CLint [4]: 24.2 µL/min/mg

SMILES: CN(Cc1cccs1)c1ncnc2[nH]c(-c3ccc(CO)cc3)nc12
- IC50 [1]: 2.9 nM

SMILES: CN(Cc1ccncc1)c1ncnc2[nH]c(-c3ccc(CO)cc3)nc12
- IC50 [1]: 2.2 nM

SMILES: CN(Cc1ccccn1)c1ncnc2[nH]c(-c3ccc(CO)cc3)nc12
- IC50 [1]: 7.2 nM

SMILES: FC(F)(F)c1ccc(CNc2ccc(Cc3c[nH]c4ncc(Cl)cc34)cn2)cn1 [PEXIDARTINIB]
- IC50 [2]: 100 nM
- Vd [13]: 0.4 L/kg
- clearance [14]: 0.833 mL/min/kg
- remaining at 1 h, 5 µM [15]: 100%
- solubility kinetic at […], 500 µM [3]: 20.7 µM (≈ 8.65 µg/mL)
- IC50 (BaF3): 60 nM
- inhibition (INH) [17]: 100%
- inhibition [18]: Active
- inhibition [19]: Active

Further lines, with some results ahead:

- IC50 [1]: 11 nM
SMILES: Cc1ccc(CN(C)c2ncnc3[nH]c(-c4ccc(CO)cc4)nc23)cc1

- Kd [8]: 80 nM
- fraction unbound at 6 h, 5 µM [9]: 0.44
- IC50 [2]: 83 nM
- hepatocyte CLint at 3 µM [10]: 148 µL/min/1e6 cells
- Kd [11]: 4.5 nM
- remaining at 1 h, 5 µM [12]: 83%
- Vd [13]: 80 L/kg
- CL ([14]; iv, 1 mg/kg, 8 h): 3300 mL/min/kg
- remaining at 1 h, 5 µM [15]: 100%
- solubility kinetic at […], 500 µM [3]: 55.4 µM (≈ 19.6 µg/mL)
- half-life [16]: 24 min
- IC50 (BaF3): 3100 nM
- CLint [4]: 15.8 µL/min/mg
- CLint [7]: 58.7 µL/min/mg
SMILES: CN(CC1CCOCC1)c1ncnc2[nH]c(-c3ccc(CO)cc3)nc12
- inhibition (INH) [17]: 100%
- inhibition [18]: Active
- inhibition [19]: Active

- Kd [8]: 36 nM
- fraction unbound at 6 h, 5 µM [9]: 0.366
- IC50 [2]: 106 nM
- hepatocyte CLint at 3 µM [10]: 22 µL/min/1e6 cells
- Kd [11]: 0.5 nM
- remaining at 1 h, 5 µM [12]: 97.2%
- Vd [13]: 9 L/kg
- clearance [14]: 317 mL/min/kg
- fold change (FC) [5]: 0.7
- remaining at 1 h, 5 µM [15]: 97.9%
- solubility kinetic at […], 500 µM [3]: 37.5 µM (≈ 13.8 µg/mL)
- half-life [16]: 24 min
- IC50 (BaF3): 1500 nM
- Ratio [20]: 72
- CLint [4]: 14.7 µL/min/mg
- CLint [7]: 30.2 µL/min/mg
SMILES: CN(CC1CCOCC1)c1ncnc2[nH]c(-c3ccc(CCO)cc3)nc12
- inhibition (INH) [17]: 100%
- inhibition [18]: Active
- inhibition [19]: Active

- IC50 [1]: 2.7 nM
SMILES: CN(Cc1ccccc1)c1ncnc2[nH]c(-c3ccccc3)nc12

- IC50 [2]: > 300 nM
- solubility kinetic at […], 500 µM [3]: 131 µM (≈ 44.5 µg/mL)
- CLint [4]: 20.1 µL/min/mg
SMILES: CN(CC1CCOC1)c1ncnc2[nH]c(-c3ccc(CO)cc3)nc12 (stereo unspecified)

- IC50 [1]: 1.3 nM
SMILES: Cc1cccc(CN(C)c2ncnc3[nH]c(-c4ccc(CO)cc4)nc23)c1

- IC50 [2]: > 300 nM
- solubility kinetic at […], 500 µM [3]: 33.5 µM (≈ 14.8 µg/mL)
- CLint [4]: 22.1 µL/min/mg
SMILES: CN(CC1CCN(Cc2ccccc2)CC1)c1ncnc2[nH]c(-c3ccc(CO)cc3)nc12
